This experiment has as its system C57BL/6 mice. Kind of experiment: In vivo bioluminescence assay of LNPs encapsulating luciferase mRNA (without permanently cationic lipid). The settings on record: intravenous single dose 0.5 mg/kg luciferase mRNA, 6 h after administration, group mean. The method, then:
The delivery effect and safety of nanoparticles encapsulated with luciferase mRNA (Trilink, L-7202) in mice were evaluated. The test mice were SPF-grade C57BL/6 mice, female, 6-8 weeks old, weighing 18-22 g, and were purchased from SPF (Beijing) Biotechnology Co., Ltd. All animals were acclimatized for more than 7 days prior to the experiment, and had free access to food and water during the experiment. The conditions include alternating light and dark for 12/12 h, the indoor temperature of 20-26° C. and the humidity of 40-70%. The mice were randomly grouped. The lipid nanoparticles encapsulated with luciferase mRNA prepared above were injected into mice by intravenous administration at a single dose of 0.5 mg/kg mRNA, and the mice were subjected to in vivo bioluminescence assay using a Small Animal In Vivo Imaging System (IVIS LUMINA III, purchased from PerkinElmer) at 6 h after administration. The assay was performed as follows: D-luciferin solution was prepared in saline at a concentration of 15 mg/mL, and each mouse was given the substrate by intraperitoneal injection. At ten minutes after administration of the substrate, the mice were anesthetized in an anesthesia chamber with isoflurane at a concentration of 2.5%. The anesthetized mice were placed in IVIS for luminescent imaging. Data acquisition and analysis were performed on the concentrated distribution area of luminescence.
The in vivo delivery efficiency of lipid nanoparticle carriers was expressed as the mean values of fluorescence intensity and total photon count in different animals measured at 6 hours after administration of the lipid nanoparticle within the same subject group, as shown in Table 4. Higher values of fluorescence intensity and total photon count indicate higher in vivo delivery efficiency of this mRNA fragment by the lipid nanoparticles.
As to `CCCCCCC#CCCOC(=O)C(C)(C)CCCCCC(CCCCCC(C)(C)C(=O)OCCC#CCCCCCC)OC(=O)CCCN(C)C` [Compound 24], the “Total photon count in vivo (Total Flux)” value came out at 5.56E+09.

Regarding `CCCCCCCCCCOC(=O)C(C)(C)CCCCCC(CCCCCC(C)(C)C(=O)OCCCCCCCCCC)OC(=O)C1CCN(C)CC1` [Compound 99], the “Total photon count in vivo (Total Flux)” value is 5.30E+09.

Take `CCCCCCCCCOC(=O)C(C)(C)CCCCCC(CCCCCC(C)(C)C(=O)OCCCCCCCCC)OC(=O)CC1CCN(CCO)CC1` [Compound 113]: the “Total photon count in vivo (Total Flux)” value is 3.59E+08.

Consider `CCCCCCCCCSC(=O)C(C)(C)CCCCCC(CCCCCC(C)(C)C(=O)OCC#CCCC(CCCC)CCCC)OC(=O)CCCN(C)C` (centres unmarked) [Compound 119], for which the “Total photon count in vivo (Total Flux)” value is 3.25E+10.

As for `CC(C)CCCCCCCOC(=O)CCC(C)(C)CCCC(CCCC(C)(C)CCC(=O)OCCCCCCCC(C)C)OC(=O)CCCN(C)C` [Compound 127], the “Total photon count in vivo (Total Flux)” value turned out to be 3.59E+10.

Take `CCCCC/C=C\C/C=C\CCCCCCCCC(CCCCCCCC/C=C\C/C=C\CCCCC)OC(=O)CCCN(C)C` [Dlin-MC3-DMA, reference compound]: the “Total photon count in vivo (Total Flux)” value is reported as 8.04E+09.

For `CCCCCCCCCOC(=O)C(C)(C)CCCCCC(CCCCCC(C)(C)C(=O)OCC(CCCCC)CCCCCCC)OC(=O)CC1CCN(CCO)CC1` (centres unmarked) [Compound 114], the “Total photon count in vivo (Total Flux)” value turned out to be 1.06E+08.

On to `CCCCCCCCCCOC(=O)C(C)(C)CCCCCC(CCCCCC(C)(C)C(=O)OCCCCCCCCCC)OC(=O)CCN(C)C` [Compound 1], for which the “Total photon count in vivo (Total Flux)” value stood at 6.43E+08.

Take `CCCCCCCCN(CCCCCCCC)CCOC(=O)C(C)(C)CCCCCC(CCCCCC(C)(C)C(=O)OCCN(CCCCCCCC)CCCCCCCC)OC(=O)CCN(C)C` [Compound 15]: the “Total photon count in vivo (Total Flux)” value was 4.89E+08.

As for `CCCCCCCCCOC(=O)CC(C)(C)CCCCC(CCCCC(C)(C)CC(=O)OCCCCCCCCC)OC(=O)CCCN(C)C` [Compound 97], the “Total photon count in vivo (Total Flux)” value is reported as 3.37E+09.

In the case of `CCCCCCCCCSC(=O)C(C)(C)CCCCCC(CCCCCC(C)(C)C(=O)SCCCCCCCCC)OC(=O)CC1CCN(CCO)CC1` [Compound 110], the “Total photon count in vivo (Total Flux)” value stood at 2.06E+08.

Source of the values: patent publication US20250090472A1, “LIPID NANOPARTICLE COMPOSITIONS AND USES THEREOF” (BEIJING JITAI PHARMACEUTICAL TECHNOLOGY CO., LTD., priority 2023, published 2025).
